Experimental findings from patent US7608619B2, “Substituted oxazole compounds with analgesic activity” (Gruenenthal GmbH, priority 2005, dated 2009) are described below.

One test deals with T1, human μ-opiate receptor (Homo sapiens, UniProt P35372).
T1 construct: purchased Nen company, Zaventem, Belgium RB-HOM; host or cells: CHO-K1 cells (membrane preparation)
T1 sequence (P35372 whole entry): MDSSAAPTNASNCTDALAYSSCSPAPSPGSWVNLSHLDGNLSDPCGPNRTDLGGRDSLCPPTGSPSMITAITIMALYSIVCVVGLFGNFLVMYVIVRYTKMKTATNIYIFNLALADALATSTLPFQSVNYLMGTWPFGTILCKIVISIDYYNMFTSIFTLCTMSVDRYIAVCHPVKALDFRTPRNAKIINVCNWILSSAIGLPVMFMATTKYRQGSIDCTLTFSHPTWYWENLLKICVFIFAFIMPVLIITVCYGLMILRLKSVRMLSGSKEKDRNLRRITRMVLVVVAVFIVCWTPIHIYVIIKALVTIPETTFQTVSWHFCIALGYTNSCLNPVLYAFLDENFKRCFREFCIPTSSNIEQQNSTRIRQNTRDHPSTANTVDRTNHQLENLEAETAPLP
Kind of test: Affinity for the human μ-opiate receptor ([3H]-naloxone displacement, SPA, CHO-K1 membrane preparation). The following applies: test substance 1 μmole/l; displacement of 1 nmole/l [3H]-naloxone; percentage inhibition of the specific binding. A digest of the protocol: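 [3H]-naloxone (1 nmol/l) displacement by SPA with WGA beads, using membranes of CHO-K1 cells expressing the receptor, in 50 mmol/l Tris-HCl with 0.05% azide and 0.06% BSA; 90 min at room temperature. Non-specific binding defined with 25 μmol/l naloxone. Value is % inhibition of specific binding at 1 μmol/l test compound.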
As for `CN(C)C(c1cccs1)C1CCC(C(c2nc(Cc3ccccc3)c(N3CCCC3)o2)N2CCN(c3ccc(F)cc3)CC2)CC1` (centres unmarked) [compound 142, [(4.-{(4-benzyl-5-pyrrolidin-1-yl-oxazol-2-yl)-[4-(4-fluorophenyl)-piperazin-1-yl]-me.thyl}-cyclohexyl)-thiophen-2-yl-methyl]-dimethylamine], the “μ-opioid receptor, % inhibition [1 μM]” value is recorded as 85%.

Staying with this test, now noted: test substance 1 μmole/l; displacement of 1 nmole/l [3H]-naloxone; percentage inhibition of the specific binding; read-out: μ-opioid receptor, % inhibition [1 μM].
Turning to `CCN(CC)C(CC1CCC(C(c2ccc(F)cc2)N(C)C)CC1)c1nc(Cc2ccccc2)c(N2CCN(Cc3ccccc3)CC2)o1` (centres unmarked) [compound 68, (1-[4-benzyl-5-(4-benzyl-piperazin-1-yl)-oxazol-2-yl]-2-{4-[dimethylamino-(4-fluorophenyl)-methyl]-cyclohexyl}-ethyl)-diethylamine], the inhibition – broadly, the change of the read-out against control, counted positive when it falls – at 1 µM was found to be 60%.
Regarding `CC1CN(c2oc(C(C3CCC(C(c4ccc(Cl)cc4)N(C)C)CC3)N3CCOCC3)nc2Cc2ccccc2)CC(C)O1` (centres unmarked) [compound 132, [(4-{[4-benzyl-5-(2,6-dimethylmorpholin-4-yl)-oxazol-2-yl]-morpholin-4-yl-methyl}-cyclohexyl)-(4-chlorophenyl)-methyl]-dimethylamine], the inhibition at 1 µM was determined as 64%.
As for `COc1ccc(N2CCN(C(c3nc(Cc4ccccc4)c(N4CCOCC4)o3)C3CCC(C(c4cccs4)N(C)C)CC3)CC2)cc1` (centres unmarked) [compound 144, [(4-{(4-benzyl-5-morpholin-4-yl-oxazol-2-yl)-[4-(4-methoxy-phenyl)-piperazin-1-yl]-methyl}-cyclohexyl)-thiophen-2-yl-methyl]-dimethylamine], the inhibition at 1 µM is 64%.
Same read-out and setting: the figure for `CCN(CC)C(CC1CCC(C(c2ccc(F)cc2)N(C)C)CC1)c1nc(Cc2ccccc2)c(N(C)Cc2ccccc2)o1` (centres unmarked) [compound 70, Benzyl-[4-benzyl-2-(1-diethylamino-2-{4-[dimethylamino-(4-fluorophenyl)-methyl]-cyclohexyl}-ethyl)-oxazol-5-yl]-methylamine] is 60%; for `CN(C)C(c1cccc(F)c1)C1CCC(C(c2nc(Cc3ccccc3)c(N3CCCC3)o2)N2CCOCC2)CC1` (centres unmarked) [compound 120, [{4-[(4-benzyl-5-pyrrolidin-1-yl-oxazol-2-yl)-morpholin-4-yl-methyl]-cyclohexyl}-(3-fluorophenyl)-methyl]-dimethylamine] it is 75%.
As for `CN(C)C(c1ccc(F)cc1)C1CCC(CC(c2nc(Cc3ccccc3)c(N3CCSCC3)o2)N(C)c2ccccc2)CC1` (centres unmarked) [compound 104, (1-(4-benzyl-5-thiomorpholin-4-yl-oxazol-2-yl)-2-{4-[dimethylamino-(4-fluorophenyl)-methyl]-cyclohexyl}-ethyl)-methylphenylamine], the inhibition at 1 µM was determined as 89%.
As for `CN(C)C(c1cccs1)C1CCC(C(c2nc(Cc3ccccc3)c(N3CCCC3)o2)N2CCc3ccccc3C2)CC1` (centres unmarked) [compound 146, ({4-[(4-benzyl-5-pyrrolidin-1-yl-oxazol-2-yl)-(3,4-dihydro-1H-isoquinolin-2-yl)-methyl]-cyclohexyl}-thiophen-2-yl-methyl)-dimethylamine], the inhibition at 1 µM came to 92%.
For the compound `COc1ccc(N2CCN(C(c3nc(Cc4ccccc4)c(N4CCCC4)o3)C3CCC(C(c4cccs4)N(C)C)CC3)CC2)cc1` (centres unmarked) [compound 143, [(4-{(4-benzyl-5-pyrrolidin-1-yl-oxazol-2-yl)-[4-(4-methoxyphenyl)-piperazin-1-yl]-methyl}-cyclohexyl)-thiophen-2-yl-methyl]-dimethylamine], the inhibition at 1 µM was determined as 77%.
Still for that read-out and setting: the figure for `CN(C)C(c1cccs1)C1CCC(CC(c2nc(Cc3ccccc3)c(N3CCN(c4ccccc4)CC3)o2)N2CCCCC2)CC1` (centres unmarked) [compound 76, [(4-{2-[4-benzyl-5-(4-phenyl-piperazin-1-yl)-oxazol-2-yl]-2-piperidin-1-yl-ethyl}-cyclohexyl)-thiophen-2-yl-methyl]-dimethylamine] is 94%.
On the same count and under the same terms, under `COc1ccc(N2CCN(C(CC3CCC(C(c4cccc(F)c4)N(C)C)CC3)c3nc(Cc4ccccc4)c(N4CC(C)OC(C)C4)o3)CC2)cc1` (centres unmarked) [compound 156, [(4-{2-[4-benzyl-5-(2,6-dimethylmorpholin-4-yl)-oxazol-2-yl]-2-[4-(4-methoxyphenyl)-piperazin-1-yl]-ethyl}-cyclohexyl)-(3-fluorophenyl)-methyl]-dimethylamine] stands 74%; under `COc1ccc(N2CCN(C(CC3CCC(C(c4cccs4)N(C)C)CC3)c3nc(Cc4ccccc4)c(N4CCCC4)o3)CC2)cc1` (centres unmarked) [compound 163, [(4-{2-(4-benzyl-5-pyrrolidin-1-yl-oxazol-2-yl)-2-[4-(4-methoxyphenyl)-piperazin-1-yl]-ethyl}-cyclohexyl)-thiophen-2-yl-methyl]-dimethylamine], 83%.
On the same count and under the same terms, under `CCN(CC)C(c1nc(Cc2ccccc2)c(N(C)CCc2ccccc2)o1)C1CCC(C(c2ccc(F)cc2)N(C)C)CC1` (centres unmarked) [compound 34, [4-benzyl-2-(diethylamino-{4-[dimethylamino-(4-fluorophenyl)-methyl]-cyclohexyl}-methyl)-oxazol-5-yl]-methylphenethylamine] stands 84%; under `CN(C)C(c1cccs1)C1CCC(CC(c2nc(Cc3ccccc3)c(N3CCN(c4ccccc4)CC3)o2)N2CCN(Cc3ccccc3)CC2)CC1` (centres unmarked) [compound 85, ({4-[2-[4-benzyl-5-(4-phenyl-piperazin-1-yl)-oxazol-2-yl]-2-(4-benzyl-piperazin-1-yl)-ethyl]-cyclohexyl}-thiophen-2-yl-methyl)-dimethylamine], 91%.
For `CC1CN(c2oc(C(CC3CCC(C(c4cccc(F)c4)N(C)C)CC3)N3CCN(c4ccc(F)cc4)CC3)nc2Cc2ccccc2)CC(C)O1` (centres unmarked) [compound 153, [(4-{2-[4-benzyl-5-(2,6-dimethylmorpholin-4-yl)-oxazol-2-yl]-2-[4-(4-fluorophenyl)-piperazin-1-yl]-ethyl}-cyclohexyl)-(3-fluorophenyl)-methyl]-dimethylamine], the inhibition at 1 µM came to 71%.
As to `CCN(CC)C(CC1CCC(C(c2ccc(Cl)cc2)N(C)C)CC1)c1nc(Cc2ccccc2)c(N2CCC(Cc3ccccc3)CC2)o1` (centres unmarked) [compound 59, (1-[4-benzyl-5-(4-benzylpiperidin-1-yl)-oxazol-2-yl]-2-{4-[(4-chlorophenyl)-dimethylaminomethyl]-cyclohexyl}-ethyl)-diethylamine], the inhibition at 1 µM turned out to be 60%.
Same read-out and setting: the figure for `CC1CC(C)CN(c2oc(C(CC3CCC(C(c4cccs4)N(C)C)CC3)N3CCCCC3)nc2Cc2ccccc2)C1` (centres unmarked) [compound 107, [(4-{2-[4-benzyl-5-(3,5-dimethylpiperidin-1-yl)-oxazol-2-yl]-2-piperidin-1-yl-ethyl}-cyclohexyl)-thiophen-2-yl-methyl]-dimethylamine] is 84%; for `CCN(CC)C(CC1CCC(C(c2ccc(F)cc2)N(C)C)CC1)c1nc(Cc2ccccc2)c(N2CCCC(C)C2)o1` (centres unmarked) [compound 100, (1-[4-benzyl-5-(3-methylpiperidin-1-yl)-oxazol-2-yl]-2-{4-[dimethylamino-(4-fluorophenyl)-methyl]-cyclohexyl}-ethyl)-diethylamine] it is 86%; for `CN(C)C(c1cccc(F)c1)C1CCC(C(c2nc(Cc3ccccc3)c(N3CCOCC3)o2)N2CCc3ccccc3C2)CC1` (centres unmarked) [compound 126, [{4-[(4-benzyl-5-morpholin-4-yl-oxazol-2-yl)-(3,4-dihydro-1H-isoquinolin-2-yl)-methyl]-cyclohexyl}-(3-fluorophenyl)-methyl]-dimethylamine] it is 76%.
As for `CN(Cc1ccccc1)c1oc(C(CC2CCC(C(c3ccc(F)cc3)N(C)C)CC2)N2CCCCC2)nc1Cc1ccccc1` (centres unmarked) [compound 66, Benzyl-[4-benzyl-2-(2-{4-[dimethylamino-(4-fluorophenyl)-methyl]-cyclohexyl}-1-piperidin-1-yl-ethyl)-oxazol-5-yl]-methylamine], the inhibition at 1 µM came to 65%.
The same measure, in the same setting: under `CCN(CC)C(c1nc(Cc2ccccc2)c(N2CCC(C)CC2)o1)C1CCC(C(c2cccs2)N(C)C)CC1` (centres unmarked) [compound 29, {[4-benzyl-5-(4-methylpiperidin-1-yl)-oxazol-2-yl]-[4-(dimethylamino-thiophen-2-yl-methyl)-cyclohexyl]-methyl}-diethylamine] stands 95%; under `CCN(CC)C(CC1CCC(C(c2ccc(Cl)cc2)N(C)C)CC1)c1nc(Cc2ccccc2)c(N2CCSCC2)o1` (centres unmarked) [compound 91, (1-(4-benzyl-5-thiomorpholin-4-yl-oxazol-2-yl)-2-{4-[(4-chlorophenyl)-dimethylaminomethyl]-cyclohexyl}-ethyl)-diethylamine], 75%; under `CN(C)C(c1cccs1)C1CCC(CC(c2nc(Cc3ccccc3)c(N3CCSCC3)o2)N2CCN(Cc3ccccc3)CC2)CC1` (centres unmarked) [compound 118, ({4-[2-(4-benzylpiperazin-1-yl)-2-(4-benzyl-5-thiomorpholin-4-yl-oxazol-2-yl)-ethyl]-cyclohexyl}-thiophen-2-yl-methyl)-dimethylamine], 84%.
Same read-out and setting: under `CN(C)C(c1ccc(F)cc1)C1CCC(C(c2nc(Cc3ccccc3)c(N3CCCC3)o2)N2CCCCC2)CC1` (centres unmarked) [compound 17, [{4-[(4-benzyl-5-pyrrolidin-1-yl-oxazol-2-yl)-piperidin-1-yl-methyl]-cyclohexyl}-(4-fluorophenyl)-methyl]-dimethylamine] stands 76%.
For `CN(CCc1ccccc1)c1oc(C(CC2CCC(C(c3ccc(Cl)cc3)N(C)C)CC2)N2CCCCC2)nc1Cc1ccccc1` (centres unmarked) [compound 86, [4-benzyl-2-(2-{4-[(4-chlorophenyl)-dimethylaminomethyl]-cyclohexyl}-1-piperidin-1-yl-ethyl)-oxazol-5-yl]-methylphenethylamine], the inhibition at 1 µM came out at 63%.
On the same count and under the same terms, under `CCN(CC)c1oc(C(CC2CCC(C(c3ccc(F)cc3)N(C)C)CC2)N(CC)CC)nc1Cc1ccccc1` (centres unmarked) [compound 98, [4-benzyl-2-(1-diethylamino-2-{4-[dimethylamino-(4-fluorophenyl)-methyl]-cyclohexyl}-ethyl)-oxazol-5-yl]-diethylamine] stands 77%.
